# Measurements published in patent US10206398B2, “Five-membered C-N-attached aryl sulphide and aryl sulphoxide derivatives as pesticides” (BAYER CROPSCIENCE AKTIENGESELLSCHAFT, priority 2014, dated 2019).
# Like-named read-outs stand apart in the source and are kept apart here.
# Key:
# [1] = system: Tetranychus urticae; experiment: Tetranychus urticae - spray test, OP-resistant (bean leaf discs, 6 days); format: in vivo; settings: after 6 days; for pest or weed control at 500 g/ha: Tetranychus urticae, foliar, 144 h, read-out: efficacy (spider mites killed)
# Procedure, shortened: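 Bean leaf discs carrying all stages of OP-resistant Tetranychus urticae were sprayed with compound formulated in acetone/DMF and diluted in water with 1000 ppm emulsifier. Mortality was scored after 6 days as % efficacy, where 100% means all mites were killed.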
# [2] = log P determination by HPLC on reversed-phase columns (C 18), analogous to OECD Guideline 117; format: physicochemical; settings: for logP[a]: method [a]; for logP[b]: method [b]; for chromatographic logP: reversed-phase HPLC column (C 18)
# Procedure, shortened: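 Reversed-phase C18 HPLC per OECD 117, two conditions: [a] pH 2.7, 0.1% formic acid water/acetonitrile, log P(HCOOH); [b] pH 7.8, 0.001 M ammonium hydrogencarbonate/acetonitrile, log P(neutral). Both use a 10–95% acetonitrile gradient; values are interpolated from retention times against C3–C16 unbranched alkan-2-ones.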
# [3] = system: Phaedon cochleariae; experiment: Phaedon cochleariae - spray test; format: in vivo; settings: 500 g/ha, Chinese cabbage leaf discs, after 7 days
# Method: 4. Phaedon cochleariae—Spray Test
# Solvent: 78.0 parts by weight of acetone
# • 1.5 parts by weight of dimethylformamide Emulsifier: alkylaryl polyglycol ether
# To produce a suitable preparation of active compound, 1 part by weight of active compound is dissolved using the stated parts by weight of solvent and made up with water containing an emulsifier concentration of 1000 ppm until the desired concentration is attained. To produce further test concentrations, the preparation is diluted with emulsifier-containing water.
# After 7 days, the efficacy in % is determined. 100% means that all the beetle larvae have been killed; 0% means that no beetle larvae have been killed.
# [4] = system: Boophilus microplus; experiment: Boophilus microplus - injection test; format: in vivo; settings: 20 μg/animal, injection into engorged adult female cattle ticks, assessed after 7 days
# Method: 1. Boophilus microplus—Injection Test
# Solvent: dimethyl sulphoxide
# To produce a suitable preparation of active compound, 10 mg of active compound are mixed with 0.5 ml of solvent and the concentrate is diluted with solvent to the desired concentration.
# 1 μl of the active compound solution is injected into the abdomen of 5 engorged adult female cattle ticks (Boophilus microplus). The animals are transferred into dishes and kept in a climate-controlled room.
# Efficacy is assessed after 7 days by laying of fertile eggs. Eggs which are not visibly fertile are stored in a climate-controlled cabinet until the larvae hatch after about 42 days. An efficacy of 100% means that none of the ticks has laid any fertile eggs; 0% means that all the eggs are fertile.
# [5] = system: Meloidogyne incognita; experiment: Meloidogyne incognita - test; format: in vivo; settings: 20 ppm, lettuce, after 14 days
# Method: 2. Meloidogyne incognita—Test Solvent: 125.0 parts by weight of acetone To produce a suitable preparation of active compound, 1 part by weight of active compound is mixed with the stated amount of solvent and the concentrate is diluted with water to the desired concentration. Vessels are filled with sand, active compound solution, an egg/larvae suspension of the southern root-knot nematode (Meloidogyne incognita) and lettuce seeds. The lettuce seeds germinate and the plants develop. The galls develop on the roots. After 14 days, the nematicidal efficacy in % is determined by the formation of galls. 100% means that no galls were found; 0% means that the number of galls on the treated plants corresponds to the untreated control.
# [6] = pH 2.7, HPLC, acidic range, pH 2.7, 0.1% aqueous formic acid and acetonitrile, read-out: log P(HCOOH)
# [7] = pH 2.7, method [a], read-out: logP[a]
# [8] = pH 7.8, HPLC, neutral range, pH 7.8, 0.001 molar aqueous ammonium hydrogencarbonate and acetonitrile, read-out: log P(neutral)
# [9] = pH 7.8, method [b], read-out: logP[b]
SMILES,efficacy (spider mites killed) ([1]; 500 g/ha) [%],logP[a] [2],logP[b] [2],efficacy (beetle larvae killed) [3] [%],efficacy (laying of fertile eggs) [4] [%],nematicidal efficacy (formation of galls) [5] [%],pest or weed control at 500 g/ha ([1]; 500 g/ha) [%],"chromatographic logP [2, 6]","chromatographic logP [2, 7]","chromatographic logP [2, 8]","chromatographic logP [2, 9]",efficacy (spider mites killed) ([1]; 100 g/ha) [%]
Cc1cc(F)c(N2C(=O)CN(C(=O)Nc3ccc(F)cc3)C2=O)cc1SCC(F)(F)F [compound 39],100,3.85,3.75,100,–,–,–,–,–,–,–,–
Cc1cc(F)c(N2C(=O)CN(C(=O)NC(C)(C)C)C2=O)cc1[S+]([O-])CC(F)(F)F (racemic) [compound 68],100,2.84,2.75,–,100,90,–,–,–,–,–,–
O=C(NCC(F)(F)F)N1CC(=O)N(c2cc(SCC(F)(F)F)c(Cl)cc2Cl)C1=O [compound 106],100,3.5,3.53,83,–,–,–,–,–,–,–,–
CCNC(=O)N1CC(=O)N(c2cc(SCC(F)(F)F)c(C)cc2F)C1=O [compound 6],100,2.98,2.93,–,100,90,–,–,–,–,–,–
Cc1cc(F)c(N2C(=O)CN(C(=O)NC(C)C)C2=O)cc1[S+]([O-])CC(F)(F)F (centres unmarked) [compound 10],100,2.40,2.38,–,100,100,–,–,–,–,–,–
"Cc1cc(F)c(N2C(=O)CN(C(=O)NCC(F)(F)F)C2=O)cc1[S+]([O-])CC(F)(F)F (centres unmarked) [Ex. No. 36, 3-[2-Fluoro-4-methyl-5-(2,2,2-trifluoroethylsulphinyl)phenyl]-2,4-dioxo-N-(2,2,2-trifluoroethyl)imidazolidine-1-carboxamide]",–,–,–,–,100,90,100,2.46,2.46,2.42,2.41,–
Cc1cc(Cl)c(N2C(=O)CN(C(=O)Nc3cccc(CC(F)(F)F)c3)C2=O)cc1[S+]([O-])CC(F)(F)F (racemic) [compound 71],100,3.68,3.64,100,–,90,–,–,–,–,–,–
CCC(C)NC(=O)N1CC(=O)N(c2cc([S+]([O-])CC(F)(F)F)c(C)cc2F)C1=O (centres unmarked) [compound 47],100,2.70,2.65,–,100,100,–,–,–,–,–,–
Cc1cc(C)c(N2C(=O)CN(C(=O)NCC(F)(F)F)C2=O)cc1SCC(F)(F)F [compound 38],100,3.46,3.33,100,–,–,–,–,–,–,–,–
"Cc1cc(F)c(N2C(=O)CN(C(=O)NCC(F)(F)F)C2=O)cc1SCC(F)(F)F [Ex. No. 30, 3-[2-Fluoro-4-methyl-5-(2,2,2-trifluoroethylsulphanyl)phenyl]-2,4-dioxo-N-(2,2,2-trifluoroethyl)imidazolidine-1-carboxamide]",–,–,–,83,–,–,90,3.28,3.28,3.21,3.21,–
Cc1cc(C)c([S+]([O-])CC(F)(F)F)cc1N1C(=O)CN(C(=O)Nc2ccc(F)cc2)C1=O (racemic) [compound 99],–,3.01,2.92,–,100,90,–,–,–,–,–,90
Cc1cc(F)c(N2C(=O)CN(C(=O)Nc3cccc(CC(F)(F)F)c3)C2=O)cc1SCC(F)(F)F [compound 37],100,4.32,4.24,83,–,–,–,–,–,–,–,–
Cc1cc(C)c([S+]([O-])CC(F)(F)F)cc1N1C(=O)CN(C(=O)NC(C)C)C1=O (centres unmarked) [compound 23],–,2.52,2.45,–,100,100,–,–,–,–,–,–
Cc1cc(Cl)c(N2C(=O)CN(C(=O)NCC(F)(F)F)C2=O)cc1SCC(F)(F)F [compound 53],100,3.51,3.40,83,–,–,–,–,–,–,–,–
CCC(C)NC(=O)N1CC(=O)N(c2cc(SCC(F)(F)F)c(C)cc2F)C1=O (centres unmarked) [compound 44],100,3.64,3.58,100,–,–,–,–,–,–,–,–
Cc1cc(F)c(N2C(=O)CN(C(=O)Nc3cccc(F)c3)C2=O)cc1SCC(F)(F)F [compound 42],100,3.90,3.94,–,100,90,–,–,–,–,–,–
"Cc1cc(F)c(N2C(=O)CN(C(=O)NC3CC3)C2=O)cc1SCC(F)(F)F [Ex. No. 1, N-Cyclopropyl-3-[2-fluoro-4-methyl-5-(2,2,2-trifluoroethylsulphanyl)phenyl]-2,4-dioxoimidazolidine-1-carboxamide]",–,–,–,–,100,90,100,3.07,3.07,2.98,2.98,–
CCNC(=O)N1CC(=O)N(c2cc([S+]([O-])CC(F)(F)F)c(C)cc2F)C1=O (centres unmarked) [compound 9],100,2.05,2.05,–,100,100,–,–,–,–,–,–
Cc1cc(C)c([S+]([O-])CC(F)(F)F)cc1N1C(=O)CN(C(=O)Nc2ccccn2)C1=O (racemic) [compound 118],–,2.46,2.50,100,–,–,–,–,–,–,–,–
Cc1cc(F)c(N2C(=O)CN(C(=O)NCc3ccccc3)C2=O)cc1[S+]([O-])CC(F)(F)F (centres unmarked) [compound 21],100,2.77,2.71,–,100,90,–,–,–,–,–,–
Cc1cc(F)c(N2C(=O)CN(C(=O)NC(C)C)C2=O)cc1SCC(F)(F)F [Ex. No. 7],100,3.34,3.29,–,100,90,–,–,–,–,–,–
